According to US9229008B2, “IL-8 level as a determinant of responsivity of a cancer to treatment” (Merck Sharp & Dohme Corp., priority 2008, dated 2016):

System: IL-8
Assay: IL-8 ELISA of growth media of A2058 melanoma cells
Format: cell-based, human
Conditions: A2058 B-RAF mutant melanoma cells, 8 hours exposure; DMSO control 21024
Experimental: Experiments were also performed wherein A2058 B-RAF mutant melanoma cells were treated with ERK inhibitor #1 (structure set forth herein), ERK inhibitor #2 (structure set forth herein), the PD MEK inhibitor
[drawing 23] or DMSO as a negative-control, for 8 hours.
These experiments were performed using IL-8 ELISAs from R&D Systems (Minneapolis, Minn.). Approximately 1×10^6 A2058 cells were plated onto 10 cm dishes containing 10 ml of growth media. The following day, compound was added and allowed to incubate for 8 hours. The media was removed from the plates, diluted 32× and used in the ELISA.

SMILES | IL-8 levels in growth media [pg/mL]
O=C(NOC[C@H](O)CO)c1ccc(F)c(F)c1Nc1ccc(F)cc1F [PD] | 2080
Cn1cnc2c(F)c(Nc3ccc(Br)cc3Cl)c(C(=O)NOCCO)cc21 [AR] | 1632
